Test results reported in ChEMBL document CHEMBL4371009, “Polypharmacology by Design: A Medicinal Chemist's Perspective on Multitargeting Compounds” (J Med Chem, 2019).

Assays:
[1] = biological target: D(3) dopamine receptor (Homo sapiens, UniProt P35462); experiment: Displacement of [3H]-N-methylspiperone from dopamine D3 receptor (unknown origin) expressed in HEK293 cell membranes
[2] = biological target: T1, D(4) dopamine receptor (Homo sapiens, UniProt P21917); experiment: Displacement of [3H]-N-methylspiperone from dopamine D4 receptor (unknown origin) expressed in HEK293 cell membranes
T1 sequence (P21917 whole entry): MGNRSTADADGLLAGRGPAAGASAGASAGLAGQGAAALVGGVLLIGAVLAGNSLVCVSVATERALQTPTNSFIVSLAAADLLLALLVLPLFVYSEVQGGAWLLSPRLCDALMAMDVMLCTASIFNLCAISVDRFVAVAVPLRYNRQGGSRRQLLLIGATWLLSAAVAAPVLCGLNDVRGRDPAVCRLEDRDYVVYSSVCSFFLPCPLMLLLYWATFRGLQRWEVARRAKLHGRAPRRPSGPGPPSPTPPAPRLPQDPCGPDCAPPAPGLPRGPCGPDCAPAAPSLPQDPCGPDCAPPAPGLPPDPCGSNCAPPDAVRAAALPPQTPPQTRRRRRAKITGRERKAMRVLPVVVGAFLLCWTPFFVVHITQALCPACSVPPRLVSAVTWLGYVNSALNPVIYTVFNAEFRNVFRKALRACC

[3] = biological target: T2, 5-hydroxytryptamine receptor 1A (Homo sapiens, UniProt P08908); experiment: Displacement of [3H]-Way100635 from 5HT1A (unknown origin) expressed in CHO cell membranes
T2 sequence (P08908 whole entry): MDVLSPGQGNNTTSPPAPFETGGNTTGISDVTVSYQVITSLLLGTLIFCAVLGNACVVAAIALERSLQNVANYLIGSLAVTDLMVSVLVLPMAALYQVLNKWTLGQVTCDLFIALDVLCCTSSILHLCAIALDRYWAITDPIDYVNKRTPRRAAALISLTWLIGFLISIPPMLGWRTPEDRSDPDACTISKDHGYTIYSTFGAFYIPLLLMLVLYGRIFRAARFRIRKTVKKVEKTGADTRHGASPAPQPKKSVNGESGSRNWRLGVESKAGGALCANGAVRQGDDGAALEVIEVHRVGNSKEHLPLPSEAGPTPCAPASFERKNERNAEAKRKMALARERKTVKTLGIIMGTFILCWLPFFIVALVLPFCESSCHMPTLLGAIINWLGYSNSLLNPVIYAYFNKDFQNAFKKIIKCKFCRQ

D(3) dopamine receptor, sequence (P35462 whole entry): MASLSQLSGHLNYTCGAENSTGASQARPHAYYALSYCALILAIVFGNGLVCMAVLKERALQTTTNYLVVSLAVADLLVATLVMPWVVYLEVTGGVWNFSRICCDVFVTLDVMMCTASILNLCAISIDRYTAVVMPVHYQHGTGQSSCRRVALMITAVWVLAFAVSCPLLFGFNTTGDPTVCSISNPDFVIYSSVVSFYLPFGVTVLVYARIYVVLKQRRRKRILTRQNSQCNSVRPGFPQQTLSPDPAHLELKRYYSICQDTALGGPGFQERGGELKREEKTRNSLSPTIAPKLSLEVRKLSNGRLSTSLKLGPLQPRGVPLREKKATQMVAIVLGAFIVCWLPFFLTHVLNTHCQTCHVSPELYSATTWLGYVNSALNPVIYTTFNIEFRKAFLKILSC

In the case of `COc1cc2c(cc1OC)C(=O)N(CCCCN1CCN(c3ccccn3)CC1)CCC2`, the Ki [1] is reported as 3 nM, the Ki [2] is reported as 6.5 nM and the Ki [3] is reported as 1.2 nM.
